Test results: patent US20250145633A1, “SUBSTITUTED FURANOPYRIMIDINE COMPOUNDS AS PDE1 INHIBITORS” (Dart NeuroScience, LLC, priority 2017, published 2025)

Target: human PDE1B enzyme (Homo sapiens (Human), UniProt Q01064)
Assay: IMAP TR-FRET PDE1B enzymatic assay
Assay type: biochemical
Settings: negative log of half-maximal molar inhibitory concentration, 200 nM FAM-cAMP, values given as bins; for IC50: read-out: PDE1b (pIC50) (converted)
Procedure, shortened: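 Full-length GST-tagged human PDE1B (250 pg/well) in IMAP BSA buffer with 10 U/ml calmodulin and 2.5 mM CaCl2; compound pre-incubated 5 min at room temperature, then 200 nM (final) FAM-cAMP for 30 min. IMAP binding reagent/Tb added, 1 h; TR-FRET 520/490 ratio read. IC50 from sigmoidal dose-response fit.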

Compound	IC50	PDE1b (pIC50)
Cc1oc2ncnc(NC3(C)CC3)c2c1C(=O)NCc1ccon1 [Example 92, 6-Methyl-4-[(1-methylcyclopropyl)amino]-N-(1,2-oxazol-3-ylmethyl)furo[2,3-d]pyrimidine-5-carboxamide]	10 to 100 nM	–
Cc1oc2ncnc(NC3(C)CC3)c2c1C(=O)NCC1(C)COC1 [Example 93, 6-Methyl-4-[(1-methylcyclopropyl)amino]-N-[(3-methyloxetan-3-yl)methyl]furo[2,3-d]pyrimidine-5-carboxamide]	10 to 100 nM	–
Cc1oc2ncnc(NC3(C)CC3)c2c1C(=O)NCC1(F)COC1 [Example 94, N-[(3-Fluorooxetan-3-yl)methyl]-6-methyl-4-[(1-methylcyclopropyl)amino]furo[2,3-d]pyrimidine-5-carboxamide]	100 to 1000 nM	–
COCCNC(=O)c1c(C)oc2ncnc(NC3(C)CC3)c12 [Example 95, N-(2-Methoxyethyl)-6-methyl-4-[(1-methylcyclopropyl)amino]furo[2,3-d]pyrimidine-5-carboxamide]	100 to 1000 nM	–
Cc1oc2ncnc(NC3(C)CC3)c2c1C(=O)NCCN1CCOCC1 [Example 96, 6-Methyl-4-[(1-methylcyclopropyl)amino]-N-[2-(morpholin-4-yl)ethyl]furo[2,3-d]pyrimidine-5-carboxamide]	10 to 100 nM	–
Cc1nc(CNC(=O)c2c(C)oc3ncnc(NC4(C)CC4)c23)cs1 [Example 97, 6-M ethyl-N-[(2-methyl-1,3-thiazol-4-yl)methyl]-4-[(1-methylcyclopropyl)amino]furo[2,3-d]pyrimidine-5-carboxamide]	10 to 100 nM	–
Cc1oc2ncnc(NC3(C)CC3)c2c1C(=O)NCc1ccc[nH]1 [Example 98, 6-Methyl-4-[(1-methylcyclopropyl)amino]-N-(1H-pyrrol-2-ylmethyl)furo[2,3-d]pyrimidine-5-carboxamide]	10 to 100 nM	–
Cc1oc2ncnc(NC3(C)CC3)c2c1C(=O)NCc1ccn(C)n1 [Example 99, 6-Methyl-N-[(1-methyl-1H-pyrazol-3-yl)methyl]-4-[(1-methylcyclopropyl)amino]furo[2,3-d]pyrimidine-5-carboxamide]	10 to 100 nM	–
Cc1oc2ncnc(NC3(C)CC3)c2c1C(=O)NCc1cocn1 [Example 100, 6-Methyl-4-[(1-methylcyclopropyl)amino]-N-(1,3-oxazol-4-ylmethyl)furo[2,3-d]pyrimidine-5-carboxamide]	10 to 100 nM	–
Cc1oc2ncnc(NC3(C)CC3)c2c1C(=O)N1CC(O)(c2ccc(F)cc2)C1 [Example 101, 3-(4-Fluorophenyl)-1-{6-methyl-4-[(1-methylcyclopropyl)amino]furo[2,3-d]pyrimidine-5-carbonyl}azetidin-3-ol]	–	>8
Cc1oc2ncnc(NC3(C)CC3)c2c1C(=O)NCc1ccnn1C [Example 102, 6-Methyl-N-[(1-methyl-1H-pyrazol-5-yl)methyl]-4-[(1-methylcyclopropyl)amino]furo[2,3-d]pyrimidine-5-carboxamide]	10 to 100 nM	–
COC1(c2ccccc2)CN(C(=O)c2c(C)oc3ncnc(NC4(C)CC4)c23)C1 [Example 103, 5-(3-Methoxy-3-phenylazetidine-1-carbonyl)-6-methyl-N-(1-methylcyclopropyl)furo[2,3-d]pyrimidin-4-amine]	–	>8
Cc1oc2ncnc(NC3(C)CC3)c2c1C(=O)NC1(C)CCC1 [Example 104, 6-Methyl-N-(1-methylcyclobutyl)-4-[(1-methylcyclopropyl)amino]furo[2,3-d]pyrimidine-5-carboxamide]	10 to 100 nM	–
Cc1oc2ncnc(NC3(C)CC3)c2c1C(=O)NC1(C)COC1 [Example 105, 6-Methyl-4-[(1-methylcyclopropyl)amino]-N-(3-methyloxetan-3-yl)furo[2,3-d]pyrimidine-5-carboxamide]	10 to 100 nM	–
Cc1oc2ncnc(NC3(C)CC3)c2c1C(=O)NC1CCOC1 (stereo not drawn) [Example 106, 6-Methyl-4-[(1-methylcyclopropyl)amino]-N-(oxolan-3-yl)furo[2,3-d]pyrimidine-5-carboxamide]	10 to 100 nM	–
Cc1oc2ncnc(NC3(C)CC3)c2c1C(=O)NC1(C)CCOC1 (stereo not drawn) [Example 107, 6-Methyl-4-[(1-methylcyclopropyl)amino]-N-(3-methyloxolan-3-yl)furo[2,3-d]pyrimidine-5-carboxamide]	10 to 100 nM	–
Cc1oc2ncnc(NC3(C)CC3)c2c1C(=O)NC1CCOCC1 [Example 108, 6-Methyl-4-[(1-methylcyclopropyl)amino]-N-(oxan-4-yl)furo[2,3-d]pyrimidine-5-carboxamide]	10 to 100 nM	–
Cc1oc2ncnc(NC3(C)CC3)c2c1C(=O)NC1(C)CCOCC1 [Example 109, 6-Methyl-4-[(1-methylcyclopropyl)amino]-N-(4-methyloxan-4-yl)furo[2,3-d]pyrimidine-5-carboxamide]	10 to 100 nM	–
Cc1oc2ncnc(NC3(C)CC3)c2c1C(=O)NC1CCOC(C)(C)C1 (stereo not drawn) [Example 110, N-(2,2-Dimethyloxan-4-yl)-6-methyl-4-[(1-methylcyclopropyl)amino]furo[2,3-d]pyrimidine-5-carboxamide]	10 to 100 nM	–
Cc1oc2ncnc(NC3(C)CC3)c2c1C(=O)NCc1cccn1C [Example 111, 6-Methyl-N-[(1-methyl-1H-pyrrol-2-yl)methyl]-4-[(1-methylcyclopropyl)amino]furo[2,3-d]pyrimidine-5-carboxamide]	10 to 100 nM	–
Cc1nc(CNC(=O)c2c(C)oc3ncnc(NC4(C)CC4)c23)c(C)o1 [Example 112, N-[(Dimethyl-1,3-oxazol-4-yl)methyl]-6-methyl-4-[(1-methylcyclopropyl)amino]furo[2,3-d]pyrimidine-5-carboxamide]	10 to 100 nM	–
Cc1cc(CNC(=O)c2c(C)oc3ncnc(NC4(C)CC4)c23)no1 [Example 113, 6-Methyl-N-[(5-methyl-1,2-oxazol-3-yl)methyl]-4-[(1-methylcyclopropyl)amino]furo[2,3-d]pyrimidine-5-carboxamide]	10 to 100 nM	–
Cc1oc2ncnc(NC3(C)CC3)c2c1C(=O)N[C@H]1[C@@H]2COC[C@@H]21 [Example 114, 6-Methyl-4-[(1-methylcyclopropyl)amino]-N-[(1R,5S,6R)-3-oxabicyclo[3.1.0]hexan-6-yl]furo[2,3-d]pyrimidine-5-carboxamide]	10 to 100 nM	–
Cc1oc2ncnc(NC3(C)CC3)c2c1C(=O)NCc1cncn1C [Example 115, 6-Methyl-N-[(1-methyl-1H-imidazol-5-yl)methyl]-4-[(1-methylcyclopropyl)amino]furo[2,3-d]pyrimidine-5-carboxamide]	100 to 1000 nM	–
Cc1oc2ncnc(NC3(C)CC3)c2c1C(=O)NCc1cn(C)cn1 [Example 116, 6-Methyl-N-[(1-methyl-1H-imidazol-4-yl)methyl]-4-[(1-methylcyclopropyl)amino]furo[2,3-d]pyrimidine-5-carboxamide]	10 to 100 nM	–
Cc1oc2ncnc(NC3(C)CC3)c2c1C(=O)N1CCOCC1 [Example 117, 6-Methyl-N-(1-methylcyclopropyl)-5-(morpholine-4-carbonyl)furo[2,3-d]pyrimidin-4-amine]	100 to 1000 nM	–
Cc1oc2ncnc(NC3(C)CC3)c2c1C(=O)N1CCOC(c2ccccn2)C1 (stereo not drawn) [Example 118, 6-Methyl-N-(1-methylcyclopropyl)-5-[2-(pyridin-2-yl)morpholine-4-carbonyl]furo[2,3-d]pyrimidin-4-amine]	10 to 100 nM	–
